Measurements published in the supplement of paper PMC10307832.

compound: CC(C)(C)c1nc(-c2cccc(NS(=O)(=O)c3c(F)cccc3F)c2F)c(-c2ccnc(N)n2)s1 [Dabrafenib] + CC(=O)Nc1cccc(-n2c(=O)n(C3CC3)c(=O)c3c(Nc4ccc(I)cc4F)n(C)c(=O)c(C)c32)c1 [Trametinib] (partner 0.02 µM); assay: relative viability (nuclei count vs DMSO), 5 days (fraction); higher = more cells survive; conditions: first compound 0.003 µM
In short: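 Lung cancer cell lines were pin-tool dosed in 1536-well plates on the day after seeding, with either a lone drug or a fixed anchor-drug dose plus five library-drug doses (not always all listed) in √10 steps. Nuclei were counted on 4× images after 5 days. Relative viability is the ratio of treated-well to vehicle-well nuclei counts, with each value a median of duplicate plates.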

Row | Cell Line | relative viability
1 | CAL-12T | 0.327
2 | NCI-H1944 | 0.409
3 | NCI-H2085 | 0.523
4 | NCI-H2228 | 0.269
5 | NCI-H2170 | 0.908
6 | UMC-11 | 0.773
7 | LCLC-103H | 0.635
8 | HCC-827 | 0.511
9 | COR-L 105 | 0.418
10 | NCI-H2126 | 0.468
11 | NCI-H647 | 0.42
12 | HCC-44 | 0.926
13 | NCI-H1651 | 0.85
14 | NCI-H1755 | 0.779
15 | HOP-62 | 0.352
16 | NCI-H1650 | 0.671
17 | ChaGo-K-1 | 0.884
18 | A-427 | 0.759
19 | NCI-H1648 | 0.457
20 | HCC-15 | 0.354
21 | NCI-H2342 | 0.808
22 | LK-2 | 0.692
23 | NCI-H358 | 0.109

same assay, conditions: first compound 0.009487 µM

Row | Cell Line | relative viability
24 | CAL-12T | 0.319
25 | NCI-H1944 | 0.426
26 | NCI-H2085 | 0.583
27 | NCI-H2228 | 0.45
28 | NCI-H441 | 0.53
29 | NCI-H522 | 0.829
30 | EMC-BAC-2 | 0.827
31 | NCI-H2170 | 0.982
32 | UMC-11 | 0.759
33 | NCI-H650 | 0.913
34 | LCLC-103H | 0.707
35 | NCI-H596 | 0.84
36 | HCC-827 | 0.53
37 | COR-L 105 | 0.478
38 | NCI-H2126 | 0.532
39 | NCI-H647 | 0.394
40 | LOU-NH91 | 0.774
41 | HCC-78 | 0.688

Row | Cell Line | relative viability
42 | HCC-44 | 0.993
43 | NCI-H1651 | 0.843
44 | NCI-H1755 | 0.733
45 | HOP-62 | 0.41
46 | PC-14 | 0.976
47 | NCI-H1650 | 0.609
48 | ChaGo-K-1 | 0.929
49 | A-427 | 0.737
50 | NCI-H1355 | 0.509
51 | NCI-H1648 | 0.524
52 | NCI-H1792 | 0.484
53 | HCC-15 | 0.437
54 | NCI-H1793 | 0.416
55 | NCI-H2342 | 0.79
56 | LK-2 | 0.925
57 | NCI-H358 | 0.116
58 | NCI-H1395 | 1.18
59 | SK-MES-1 | 0.653

same assay, conditions: first compound 0.03 µM

Row | Cell Line | relative viability
60 | CAL-12T | 0.382
61 | NCI-H1944 | 0.403
62 | NCI-H2085 | 0.46
63 | NCI-H2228 | 0.497
64 | NCI-H441 | 0.54
65 | NCI-H522 | 0.753
66 | EMC-BAC-2 | 1
67 | NCI-H2170 | 0.842
68 | UMC-11 | 0.495
69 | NCI-H650 | 1.01
70 | LCLC-103H | 0.614
71 | NCI-H596 | 0.707
72 | HCC-827 | 0.522
73 | COR-L 105 | 0.46
74 | NCI-H2126 | 0.475
75 | NCI-H647 | 0.306
76 | LOU-NH91 | 0.792

Row | Cell Line | relative viability
77 | HCC-78 | 0.668
78 | HCC-44 | 1.18
79 | NCI-H1651 | 0.823
80 | NCI-H1755 | 0.758
81 | HOP-62 | 0.36
82 | PC-14 | 0.944
83 | NCI-H1650 | 0.552
84 | ChaGo-K-1 | 0.933
85 | A-427 | 0.745
86 | NCI-H1355 | 0.456
87 | NCI-H1792 | 0.405
88 | HCC-15 | 0.378
89 | NCI-H2342 | 0.76
90 | LK-2 | 0.473
91 | NCI-H358 | 0.159
92 | NCI-H1395 | 0.988
93 | SK-MES-1 | 0.747

same assay, conditions: first compound 0.09487 µM

Row | Cell Line | relative viability
94 | CAL-12T | 0.334
95 | NCI-H1944 | 0.401
96 | NCI-H2085 | 0.589
97 | NCI-H2228 | 0.597
98 | NCI-H441 | 0.681
99 | NCI-H522 | 0.682
100 | EMC-BAC-2 | 1.03
101 | NCI-H2170 | 0.839
102 | UMC-11 | 0.755
103 | NCI-H650 | 0.942
104 | LCLC-103H | 0.684
105 | NCI-H596 | 0.747
106 | COR-L 105 | 0.479
107 | NCI-H2126 | 0.6
108 | NCI-H647 | 0.579
109 | LOU-NH91 | 0.782
110 | HCC-78 | 0.761
111 | HCC-44 | 0.876

Row | Cell Line | relative viability
112 | NCI-H1651 | 0.861
113 | NCI-H1755 | 0.75
114 | HOP-62 | 0.429
115 | PC-14 | 0.708
116 | NCI-H1650 | 0.666
117 | ChaGo-K-1 | 0.875
118 | A-427 | 0.65
119 | NCI-H1355 | 0.471
120 | NCI-H1648 | 0.425
121 | NCI-H1792 | 0.439
122 | HCC-15 | 0.374
123 | NCI-H1793 | 0.451
124 | NCI-H2342 | 0.866
125 | LK-2 | 0.774
126 | NCI-H358 | 0.162
127 | NCI-H1395 | 0.889
128 | SK-MES-1 | 0.712

same assay, conditions: first compound 0.3 µM

Row | Cell Line | relative viability
129 | CAL-12T | 0.445
130 | NCI-H1944 | 0.404
131 | NCI-H2085 | 0.633
132 | NCI-H2228 | 0.658
133 | NCI-H441 | 0.829
134 | NCI-H522 | 0.792
135 | EMC-BAC-2 | 1.2
136 | NCI-H2170 | 0.919
137 | UMC-11 | 0.848
138 | NCI-H650 | 1.04
139 | LCLC-103H | 0.701
140 | NCI-H596 | 0.704
141 | HCC-827 | 0.616
142 | COR-L 105 | 0.521
143 | NCI-H2126 | 0.619
144 | NCI-H647 | 0.553
145 | LOU-NH91 | 0.837
146 | HCC-78 | 0.89
147 | HCC-44 | 1.11
148 | NCI-H1651 | 0.814
149 | NCI-H1755 | 0.749
150 | HOP-62 | 0.469
151 | PC-14 | 1
152 | NCI-H1650 | 0.673
153 | ChaGo-K-1 | 0.905
154 | A-427 | 0.785
155 | NCI-H1355 | 0.535
156 | NCI-H1648 | 0.585
157 | NCI-H1792 | 0.474
158 | HCC-15 | 0.506
